{
  "source": "patent US9849097B2",
  "about": "“Dosage forms containing terbutaline sulphate” (Jagotec AG, priority 2012, dated 2017)",
  "key": {"[1]": {"settings": "oxidative degradation, aqueous solutions; cited from earlier work"}, "[2]": {"assay": "accelerated stability study on the drug", "type": "physicochemical", "settings": "60° C. and 90% relative humidity for up to 4 weeks", "description": "Thus, in the development of a terbutaline sulphate dosage form, the applicant carried out accelerated stability studies on the drug at a temperature of 60° C. and 90% relative humidity for up to 4 weeks."}},
  "data": [
    {"compound": "CC(C)(C)NCC(O)c1cc(O)cc(O)c1", "note": "(centres unmarked) [terbutaline]", "values": [
      {"measurement": "stability of drug substance", "setting": "[1]", "result": "highly stable"}
    ]},
    {"compound": "CC(C)(C)NCC(O)c1cc(O)cc(O)c1", "note": "(centres unmarked) [terbutaline sulphate]", "values": [
      {"measurement": "degradation products", "setting": "[2]", "result": "No degradation products were observed"}
    ]}
  ]
}
